Measurements published in patent US9932589B2, “EML4-ALK fusion gene” (Astellas Pharma Inc., priority 2006, dated 2018).

How the values were obtained:
[1] = target: T1, NPM-ALK (Homo sapiens, UniProt Q9UM73); settings: Non-Patent Document 22; cited from earlier work
T1 construct: the other entry of the earlier key: NPM1 (P06748, Nucleophosmin)

[2] = system: EML4-ALK fusion polypeptide v1; assay: in vitro kinase activity (autophosphorylation) of purified EML4-ALK fusion polypeptide v1, immunoblotting with anti-phosphorylated ALK antibody; format: biochemical, human
Procedure: (§1) The v1 expressing BA/F3 cells (Example 5(1)) were cultured in RPM1640 medium containing 10% of fetal bovine scrum to obtain 2.7×10^9 cells. After washing 3 times with PBS, cells were lysed in a lysis solution (50 mM Tris HCl (pH7.4), 150 mM NaCl, 1% Triton×100, 5 mM EDTA, 5 mM EGTA, 1 mM NaVO4, 1 mM DTT and protease inhibitor cocktail complete). The EML4-ALK fusion polypeptide v1 present in the supernatant obtained after a centrifugation was purified using ANTI-FLAG M2 Affinity Gel (SIGMA-ALDRICH Inc) according to the method described in the product information document. For washing and elution, the washing solution (50 mM Tris.HCl (pH7.4), 250 mM NaCl, 0.05% Brij35, 1 mM EDTA, 1 mM EGTA, 1 mM NaVO4, 1 mM DTT, complete) and the elution solution (50 mM Tris.HCl (pH7.4), 150 mM NaCl, 0.05% Brij35, 1 mM DTT, 0.5 mg/mL FLAG peptide) were used, respectively. Immunoblotting using anti-ALK antibody and anti FLAG M2 antibody (SIGMA-ALDRICH Inc.) and silver staining were carried out for the eluate to detect the EML4-ALK fusion polypeptide v1.
The EML4-ALK fusion polypeptide v1 purified as described above was diluted in a reaction solution (15 mM Tris HCl (pH7.4), 0.25 mM MgCl2, 0.01% Tween-20, 2 mM DTT), and then ATP was not added or ATP 20 μM was added. The respective mixtures were reacted at room temperature for 1 hour. After the reaction, the auto phosphorylated EML4-ALK fusion polypeptide v1 and the EML4-ALK fusion polypeptide v1 were detected by immunoblotting using anti-phosphorylated ALK antibody, which recognizes specifically the product phosphorylated at the 1604th tyrosine residue of ALK, and anti-ALK antibody, and quantitated by an image analysis system (VersaDoc Imaging System; Bio-Rad Inc.). The amount of phosphorylation was calibrated by dividing the count of the autophosphorylated EML4-ALK fusion polypeptide v1 by the count of the EML4-ALK fusion polypeptide v1. As the result, the autophosphorylated EML4-ALK fusion polypeptide v1 band was detected at the location of about 130 kDa under the condition of ATP addition, and the amount of phosphorylation was increased by about 205 folds compared to no-ATP addition.
(§2) The inhibitory effect of compound A-D against the in vitro kinase activity of the EML4-ALK fusion polypeptide v1 was investigated using anti-phosphorylated ALK antibody and the kinase activity detection kit. Respective compounds were added to the reaction solution containing the EML4-ALK fusion polypeptide v1 at a final concentration of 10 μM or 10 nM, and then the reaction was carried out with or without the addition of ATP. The rest of the operations were carried out according to the method (2) described above. […] The inhibition (%) of the kinase activity of the EML4-ALK fusion polypeptide v1 by a compound was calculated by the following formula. […]

[3] = system: EML4-ALK fusion polypeptide v1; assay: in vitro phosphorylation of peptide substrate (TK substrate 1) by EML4-ALK fusion polypeptide v1, HTRF KinEASE-TK kit; format: biochemical, human
Procedure: as §1
In addition, the phosphorylation activity toward a peptide substrate was investigated using a kinase activity detection kit (HTRF KinEASE-TK; Cisbio Inc.). Using TK substrate 1, which was included in the kit, as the substrate, and after adding no ATP or 100 μM ATP, the mixtures were reacted at room temperature for 1 hour, and the count of HTRF was detected as recommended by the Kits manufacturer. As the result it became clear that the count of HTRF (that is, phosphorylation of the peptide substrate) was increased by about 12 times by the addition of ATP compare to no addition of ATP. As shown above, the in vitro kinase activity of the EML4-ALK fusion polypeptide v1 can be detected using anti-phosphorylated ALK antibody and the kinase activity detection kit.
as §2

[4] = system: EML4-ALK fusion polypeptide v1; assay: intracellular autophosphorylation of EML4-ALK fusion polypeptide v1 in v1 expressing BA/F3 cells; format: cell-based, human; settings: for Inhibition on autophosphorylation (BA/F3cells): 6 hours
Procedure: Compound A (1 μM, 5 μM and 10 μM) was added to the culture medium of v1 expressing BA/F3 cells (Example 5(1)) or not added, and cultured for 3 hours. In addition, BA/F3 cells expressing FLAG-EML4-ALKv1(K589M) were produced using pMX-iresCD8 vector in which EML4-ALK (K589M) was integrated so that FLAG can be added, and cultured. After culturing, cells were counted and the level of phosphorylation of tyrosine of EML4-ALK fusion polypeptide v1 was measured by immunoblotting using anti-phosphorylated ALK antibody. Further, for the same transfer membrane, immunoblotting analysis by anti-FLAG tag antibody (Eastman Kodak Inc.) was carried out, and total protein quantity of the FLAG attached EML4-ALK fusion polypeptide v1 was measured.
However, the culturing time after the addition of the compounds was 6 hours, and the total protein amount of the EML4-ALK fusion polypeptide v1 was measured using anti-ALK antibody. In addition, the amount of phosphorylation was calculated by quantitating as in Example 7(2). Also, for compound A, the amount of phosphorylation was calculated by quantitating in experiment under this condition. The rate of inhibition was calculated from the amount of phosphorylation when the compound was added, using the value when the compound was not added (the solvent of the compound, DMSO was added) as a control (0% inhibition).

[5] = target: T2, EML4-ALK fusion polypeptide v1 (Homo sapiens, UniProt Q9UM73, D1529E/I1461V/K1491R); assay: intracellular autophosphorylation of EML4-ALK fusion polypeptide v1 in v1 expressing 3T3 cells; format: cell-based; settings: 4 hours
T2 construct: expressed in transfected cells; host or cells: mouse 3T3 fibroblasts transfected with EML4-ALKv1/pMXS (v1 expressing 3T3 cells); for A10, grown as a subcutaneous tumour in nude mice

[6] = system: v1 expressing 3T3 cells; assay: anchorage independent growth on spheroid plate, v1 expressing 3T3 cells; format: cell-based, mouse
Procedure: (§3) The v1 expressing 3T3 cells (Example 6(1)) and one of the human glioma cells expressing the full length ALK polypeptide and not expressing EML4-ALK fusion polynucleotide endogenously, U-87 MG cells, were seeded to a 96 well spheroid plate (Sumilon Celltight Spheroid 96U, Sumitomo Bakelite Inc.) at 3000 cells per well in a medium containing 10% fetal bovine serum (DMEM for v1 expressing 3T3 cells and RPMI 1640 for U-87MG). […] At the same time, cells were counted before the addition of drugs (Day 0). Then, cells were cultured under 5% CO2, at 37° C. for 3 days, mixed with a reagent for measuring cell number (CellTiter-Glo™ Luminescent Cell Viability Assay; Promega Inc.) stirred for 20 minutes, and the measurements (day 3) were carried out using a luminometer (ML3000 microtiter plate luminometer; Dynatech Laboratories Inc.).

[7] = system: U-87MG cells; assay: anchorage independent growth on spheroid plate, U-87MG cells expressing full length ALK; format: cell-based, human; settings: 3 days; for inhibition at 0.01 µM: final concentration 10 nM
Procedure: as §3

[8] = system: CD8 expressing BA/F3 cells; assay: growth of CD8 expressing BA/F3 cells in the presence of IL-3; format: cell-based, mouse; settings: 1 μM, 5 μM or 10 μM
[9] = system: v1 expressing BA/F3 cells; assay: growth of v1 expressing BA/F3 cells in the absence of IL-3; format: cell-based, mouse; settings: 1 μM, 5 μM or 10 μM
Procedure: Next, compound A, which is a substance that inhibits the EML4-ALK fusion polypeptide v1, was added to BA/F3 cells which obtained the IL-3 independent growth potential by expressing the EML4-ALK fusion polypeptide v1, and its effect on cell growth was investigated. […] That is, it was confirmed that cells, growing dependently on the EML4-ALK fusion polynucleotide (oncogene), were killed by an inhibitor of the EML4-ALK fusion polypeptide v1.

[10] = system: v1 expressing 3T3 cells (tumor); assay: anti-tumor test against v1 expressing 3T3 cells inoculated subcutaneously in nude mice; format: in vivo, mouse; settings: once a day for 10 days, start 6 days after inoculation, otherwise similar procedure
Procedure: Administrations were performed once a day for 14 days, and body weight and tumor size were measured every other day. Tumor volume was calculated using the following formula. […] The administration of the compound D was started after 6 days of the inoculation and carried out once a day for 10 days, and then the tumor size was measured.

[11] = target: T3, EML4-ALK fusion polypeptide v2 (Homo sapiens, UniProt Q9UM73, D1529E/I1461V/K1491R); assay: intracellular autophosphorylation of EML4-ALK fusion polypeptide v2 in 293EBNA cells; format: cell-based; settings: final concentration 10 nM, 4 hours
T3 construct: expressed in transfected cells; host or cells: 293EBNA cells (Invitrogen) transfected with FLAG-EML4-ALKv2/pcDNA3

[12] = Mus musculus, NIH3T3, read-out: inhibition rate of anchorage independent growth, v1 expressing 3T3 cells
[13] = Homo sapiens, U-87 MG, 72 h, read-out: inhibition rate of anchorage independent growth, U-87MG cell

T2 sequence (Q9UM73 with tags, fused parts or gaps I1461V/K1491R/D1529E): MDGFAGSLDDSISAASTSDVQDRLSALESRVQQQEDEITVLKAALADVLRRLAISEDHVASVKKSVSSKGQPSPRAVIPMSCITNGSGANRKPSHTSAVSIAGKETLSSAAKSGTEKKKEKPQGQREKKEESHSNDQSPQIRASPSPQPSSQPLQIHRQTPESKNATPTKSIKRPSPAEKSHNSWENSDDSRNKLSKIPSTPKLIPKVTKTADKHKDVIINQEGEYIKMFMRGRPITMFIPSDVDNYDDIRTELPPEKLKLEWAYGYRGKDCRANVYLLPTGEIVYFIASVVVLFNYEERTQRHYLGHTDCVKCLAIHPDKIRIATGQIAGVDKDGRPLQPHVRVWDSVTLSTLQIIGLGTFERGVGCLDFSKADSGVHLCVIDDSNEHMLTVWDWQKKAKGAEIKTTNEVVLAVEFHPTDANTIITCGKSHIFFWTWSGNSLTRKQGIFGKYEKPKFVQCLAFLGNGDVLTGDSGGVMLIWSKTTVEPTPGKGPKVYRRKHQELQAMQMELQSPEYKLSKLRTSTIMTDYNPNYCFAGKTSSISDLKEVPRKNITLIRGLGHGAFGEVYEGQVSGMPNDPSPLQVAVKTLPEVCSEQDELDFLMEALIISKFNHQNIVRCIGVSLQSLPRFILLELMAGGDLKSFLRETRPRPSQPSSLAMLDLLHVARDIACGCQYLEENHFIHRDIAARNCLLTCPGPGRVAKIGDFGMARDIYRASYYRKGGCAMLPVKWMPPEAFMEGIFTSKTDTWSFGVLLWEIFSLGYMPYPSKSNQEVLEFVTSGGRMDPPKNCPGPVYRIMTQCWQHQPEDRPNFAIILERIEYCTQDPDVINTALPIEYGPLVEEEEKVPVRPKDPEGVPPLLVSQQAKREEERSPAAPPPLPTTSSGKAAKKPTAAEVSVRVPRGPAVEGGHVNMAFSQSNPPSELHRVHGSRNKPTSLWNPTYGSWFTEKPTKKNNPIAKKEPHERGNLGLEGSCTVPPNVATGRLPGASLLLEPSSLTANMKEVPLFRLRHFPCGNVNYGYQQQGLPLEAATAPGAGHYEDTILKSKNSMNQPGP
T1 sequence (Q9UM73 with tags, fused parts or gaps): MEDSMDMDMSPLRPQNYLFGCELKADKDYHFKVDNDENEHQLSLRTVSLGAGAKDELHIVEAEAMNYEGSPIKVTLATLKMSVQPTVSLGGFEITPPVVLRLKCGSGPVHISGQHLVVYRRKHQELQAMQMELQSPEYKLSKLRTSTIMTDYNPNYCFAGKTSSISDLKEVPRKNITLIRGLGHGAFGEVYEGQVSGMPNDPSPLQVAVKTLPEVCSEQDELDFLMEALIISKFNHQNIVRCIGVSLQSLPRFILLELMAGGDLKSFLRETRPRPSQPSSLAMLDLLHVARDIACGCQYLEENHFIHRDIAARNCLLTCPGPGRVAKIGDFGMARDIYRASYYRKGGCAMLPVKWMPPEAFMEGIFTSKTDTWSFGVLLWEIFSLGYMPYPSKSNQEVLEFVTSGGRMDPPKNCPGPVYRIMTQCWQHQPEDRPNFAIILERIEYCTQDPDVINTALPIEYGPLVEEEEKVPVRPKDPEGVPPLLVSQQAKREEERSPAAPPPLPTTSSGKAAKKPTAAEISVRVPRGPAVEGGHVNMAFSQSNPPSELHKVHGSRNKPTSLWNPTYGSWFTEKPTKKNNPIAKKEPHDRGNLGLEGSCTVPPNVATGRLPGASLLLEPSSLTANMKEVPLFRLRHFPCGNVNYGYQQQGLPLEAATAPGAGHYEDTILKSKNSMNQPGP
T3 sequence (Q9UM73 with tags, fused parts or gaps I1461V/K1491R/D1529E): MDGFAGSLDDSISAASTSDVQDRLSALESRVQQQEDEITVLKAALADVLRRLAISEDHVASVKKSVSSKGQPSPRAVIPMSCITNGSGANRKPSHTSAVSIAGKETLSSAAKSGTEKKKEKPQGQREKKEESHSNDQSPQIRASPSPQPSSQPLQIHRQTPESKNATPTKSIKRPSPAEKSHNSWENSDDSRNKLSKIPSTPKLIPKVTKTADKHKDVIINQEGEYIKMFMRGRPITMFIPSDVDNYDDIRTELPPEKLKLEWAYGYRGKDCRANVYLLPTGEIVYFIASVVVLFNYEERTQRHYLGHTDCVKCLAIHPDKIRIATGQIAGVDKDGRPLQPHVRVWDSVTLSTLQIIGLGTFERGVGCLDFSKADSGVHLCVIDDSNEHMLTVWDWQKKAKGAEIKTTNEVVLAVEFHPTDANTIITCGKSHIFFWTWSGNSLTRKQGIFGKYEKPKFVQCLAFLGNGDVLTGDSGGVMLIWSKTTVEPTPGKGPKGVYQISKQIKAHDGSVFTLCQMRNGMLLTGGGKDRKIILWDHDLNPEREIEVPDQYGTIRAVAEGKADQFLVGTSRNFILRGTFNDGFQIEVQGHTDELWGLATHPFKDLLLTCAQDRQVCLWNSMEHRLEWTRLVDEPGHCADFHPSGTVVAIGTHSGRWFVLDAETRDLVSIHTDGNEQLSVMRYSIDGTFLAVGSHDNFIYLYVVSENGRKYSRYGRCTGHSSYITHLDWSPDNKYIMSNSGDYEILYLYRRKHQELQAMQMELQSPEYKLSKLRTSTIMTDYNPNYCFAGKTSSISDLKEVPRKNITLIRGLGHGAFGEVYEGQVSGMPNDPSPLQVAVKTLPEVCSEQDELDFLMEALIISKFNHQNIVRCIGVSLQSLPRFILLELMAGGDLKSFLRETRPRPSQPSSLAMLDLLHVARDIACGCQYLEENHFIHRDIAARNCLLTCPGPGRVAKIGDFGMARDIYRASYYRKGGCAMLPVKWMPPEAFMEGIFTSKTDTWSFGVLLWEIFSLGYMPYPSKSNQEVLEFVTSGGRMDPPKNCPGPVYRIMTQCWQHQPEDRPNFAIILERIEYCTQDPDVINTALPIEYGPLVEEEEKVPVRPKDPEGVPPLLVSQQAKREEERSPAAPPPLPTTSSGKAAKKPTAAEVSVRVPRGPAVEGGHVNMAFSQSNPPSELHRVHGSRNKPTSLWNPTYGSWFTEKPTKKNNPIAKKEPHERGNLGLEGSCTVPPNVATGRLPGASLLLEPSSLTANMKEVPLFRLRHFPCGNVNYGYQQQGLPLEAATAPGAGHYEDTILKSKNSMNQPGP

Compound | activity of NPM-ALK [1] | Inhibition on autophosphorylation ([2]; final concentration 10 μM) [%] | Inhibition on peptide substrate ([3]; final concentration 10 μM) [%] | Inhibition on autophosphorylation (BA/F3cells) ([4]; final concentration 10 μM) [%] | Inhibition on autophosphorylation ([2]; final concentration 10 nM) [%] | Inhibition on peptide substrate ([3]; final concentration 10 nM) [%] | Inhibition on autophosphorylation (BA/F3cells) ([4]; final concentration 10 nM) [%] | inhibition at 0.01 µM [6, 12] [%] | inhibition at 0.01 µM [7, 13] [%] | other results
COc1cc2ncnc(Nc3ccc(O)cc3)c2cc1OC [WHI-P131, 4-(4′-Hydroxyphenyl)amino-6,7-dimethoxyquinazo line] | inhibit the activity of NPM-ALK | – | – | – | – | – | – | – | – | –
COc1cc2ncnc(Nc3ccc(O)c(Br)c3)c2cc1OC [compound A, 4-[(3′-Bromo-4′-hydroxyphenyl)amino]-6,7-dimethoxyquinazoline] | inhibit the activity of NPM-ALK | 104 | 99 | 74 | – | – | – | – | – | intracellular autophosphorylation of the EML4-ALK fusion polypeptide v1 (FIG. 4) ([4]; 1 μM, 5 μM and 10 μM, 3 hours): inhibits the intracellular autophosphorylation of the EML4-ALK fusion polypeptide v1 in a concentration-dependent manner; Inhibition on autophosphorylation (3T3cells) ([5]; final concentration 10 μM): 82%; inhibition rate of anchorage independent growth, v1 expressing 3T3 cells ([6]; final concentration 10 μM, 3 days, Day 0 = 100%, Day 3 = 0% inhibition): 106%; inhibition rate of anchorage independent growth, U-87MG cell ([7]; final concentration 10 μM): 15%; cell growth of CD8 expressing BA/F3 cells (FIG. 6(a)) [8]: a slight growth inhibition was observed; cell growth of v1 expressing BA/F3 cells (FIG. 6(b)) [9]: the cell growth was markedly inhibited by concentration-dependence of compound A and cell death was induced
O=C(COc1ccc(OC(F)(F)F)cc1)NCc1nc(C(=O)NCCc2cccc(Cl)c2)cs1 [compound B, N-[2-(3-chlorophenyl)ethyl]-2-[({[4-(trifluoromethoxy)phenoxy]acetyl}amino)methyl]-1,3-thiazole-4-carboxamide] | – | 68 | 56 | 77 | – | – | – | – | – | inhibition at 10 µM ([5]; NIH3T3, final concentration 10 μM, read-out: Inhibition on autophosphorylation (3T3cells)): 49%; inhibition at 10 µM [6, 12]: 91%; inhibition at 10 µM ([7]; Homo sapiens, U-87 MG, 72 h, final concentration 10 μM, read-out: inhibition rate of anchorage independent growth, U-87MG cell): 34%
COc1cc(N2CCC(N3CCN(C)CC3)CC2)ccc1Nc1ncc(Cl)c(Nc2ccccc2S(=O)(=O)C(C)C)n1 [compound C, 5-chloro-N^4-[2-(isopropylsulfonyl)phenyl]-N^2-{2-methoxy-4-[4-(4-methylpiperazin-1-yl)piperidin-1-yl]phenyl}pyrimidine-2,4-diamine] | – | – | – | – | 102 | 99 | 84 | 131 | -2 | –
CNS(=O)(=O)c1ccccc1Nc1nc(Nc2ccc(N3CCN(C)CC3)cc2OC)ncc1Br [compound D, 2-[(5-bromo-2-{[2-methoxy-4-(4-methylpiperazin-1-yl)phenyl]amino}pyrimidin-4-yl)amino]-N-methylbenzenesulfonamide] | – | – | – | – | 96 | 99 | 90 | 135 | -2 | inhibition at 0.01 µM ([5]; NIH3T3, final concentration 10 nM, read-out: Inhibition on autophosphorylation (3T3cells)): 86%; inhibition of growth of v1 expressing 3T3 cells (tumor), tumor volume [10]: 101%; inhibition at 0.01 µM [11]: 95%
